Laboratory results: patent US10160769B2, “Compositions comprising thienopyrimidine and thienopyridine compounds and methods of use thereof” (The Regents of the University of Michigan, priority 2013, dated 2018)

Key:
menin-MLL interaction = biological target: T1, menin-MLL interaction (Homo sapiens, UniProt O00255); assay: biochemical
T1 sequence (O00255 1-610): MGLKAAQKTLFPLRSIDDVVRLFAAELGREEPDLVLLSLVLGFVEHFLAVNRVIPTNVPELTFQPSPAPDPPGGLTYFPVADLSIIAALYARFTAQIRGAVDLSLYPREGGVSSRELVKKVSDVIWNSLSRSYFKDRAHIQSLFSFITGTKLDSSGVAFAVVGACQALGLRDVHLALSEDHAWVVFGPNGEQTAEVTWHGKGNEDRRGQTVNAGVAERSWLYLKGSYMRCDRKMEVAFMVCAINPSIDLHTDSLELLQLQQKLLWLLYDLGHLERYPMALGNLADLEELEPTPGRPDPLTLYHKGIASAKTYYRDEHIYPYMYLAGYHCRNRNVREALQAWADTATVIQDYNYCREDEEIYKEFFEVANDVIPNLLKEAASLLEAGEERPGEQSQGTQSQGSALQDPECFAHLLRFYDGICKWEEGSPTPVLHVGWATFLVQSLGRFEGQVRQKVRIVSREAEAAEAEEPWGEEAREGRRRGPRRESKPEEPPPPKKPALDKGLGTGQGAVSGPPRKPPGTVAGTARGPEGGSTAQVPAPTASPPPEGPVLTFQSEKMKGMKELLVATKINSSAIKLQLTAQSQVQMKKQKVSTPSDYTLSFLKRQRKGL
Description: Fluorescence Polarization Assay.
Compounds that inhibit the interaction decrease the fluorescence anisotropy which is being used as a read-out for compound screening and for IC50 determination.

[1] = test system: Hoxa9 and Meis1 expression in MLL-AF9 BMC; assay: qRT-PCR of Hoxa9 and Meis1; format: cell-based, mouse; details: FIG. 10
[2] = biological target: T2, menin-MLL-AF9 interaction (Homo sapiens, UniProt O00255); assay: Co-Immunoprecipitation (co-IP) in HEK293 cells transfected with MLL-AF9; format: cell-based; details: FIG. 2
T2 construct: performed in HEK293 cells transfected with MLL-AF9; endogenous in cells; host or cells: HEK293
T2 sequence (O00255 1-610): T1 sequence (O00255 1-610)

[3] = test system: mice model of MLL-AF9 leukemia; assay: In vivo efficacy in mice model of MLL-AF9 leukemia; details: once daily i.p. injections of 75 mg/kg, FIG. 18
[4] = test system: human MLL leukemia cell lines; assay: Growth / MTT cell viability in human MLL leukemia cell lines; format: cell-based
MLL-AF9 BMC [5] = assay: Colony formation assay; format: cell-based, mouse; details: FIG. 7
[6] = test system: MLL-AF9 transformed mouse bone marrow cells (BMC); assay: MTT cell viability assay in transformed BMC; format: cell-based; details: 72 h incubation, E2H-HLF transformed BMC as negative control, FIG. 3
menin = biological target: T3, menin (Homo sapiens, UniProt O00255); assay: Isothermal Titration calorimetry (ITC); format: binding; details: FIG. 1
T3 sequence (O00255 1-610): T1 sequence (O00255 1-610)

MLL-AF9 BMC [7] = assay: Differentiation (CD11b expression, cell morphology); format: cell-based, mouse; details: change in CD11b expression and cell morphology, FIGS. 8, 9
[8] = test system: non-MLL leukemia cell lines; assay: Growth in non-MLL leukemia cell lines; format: cell-based; details: FIG. 13B
MLL-AF9 transformed BMC = assay: Growth curves experiments in transformed BMC; format: cell-based, mouse; details: MLL-AF9 BMC vs Hoxa9/Meis1 transformed BMC (negative control), FIG. 5

SMILES | IC50 (menin-MLL interaction) [nM] | expression of downstream targets of MLL fusion proteins: Hoxa9 and Meis1 [1] | inhibition of the menin-MLL-AF9 interaction [2] | proliferation of MLL leukemia cells [6] | further results
CC1(C)CN=C(N2C[C@@H]3C[C@H]2CN3c2ncnc3sc(CC(F)(F)F)cc23)S1 (racemic) [Compound 14] | 100 to 510 | – | – | – | –
FC(F)(F)Cc1cc2c(NC3CCN(Cc4ccccc4)CC3)ncnc2s1 [Compound 108] | – | downregulate expression | inhibition of the menin-MLL-AF9 interaction | selectively inhibit proliferation | survival of leukemic mice [3]: Increase in survival; growth of human MLL leukemia cell lines ([4]; MTT, 3 days of incubation, FIG. 11): selectively inhibit growth; morphology of colonies (MLL-AF9 BMC [5]): changes morphology of colonies; colony number (MLL-AF9 BMC [5]; each round 7 days): reduces colony number
CC1(C)CN=C(N2CCN(c3ncnc4sc(CC(F)(F)F)cc34)CC2)S1 [Compound 1, 4-(4-(5,5-dimethyl-4,5-dihydrothiazol-2-yl)piperazin-1-yl)-6-(2,2,2-trifluoroethyl)thieno[2,3-d]pyrimidine] | – | downregulate expression | inhibition of the menin-MLL-AF9 interaction | selectively inhibit proliferation | binding to menin (menin): direct binding
CC(F)(F)Cc1cc2c(NC3CCN(Cc4ccccc4)CC3)ncnc2s1 [Compound 155] | 500 to 2000 | – | – | – | –
N#Cc1cc2cc(CN3CCC(Nc4ncnc5sc(CC(F)(F)F)cc45)CC3)ccc2[nH]1 [Compound 175, 5-((4-((6-(2,2,2-trifluoroethyl)thieno[2,3-d]pyrimidin-4-yl)amino)piperidin-1-yl)methyl)-1H-indole-2-carbonitrile] | – | downregulate expression | inhibition of the menin-MLL-AF9 interaction | – | differentiation (MLL-AF9 BMC [7]): Differentiation induced; effect in non-MLL leukemia cell lines [8]: limited effect; selectivity towards MLL fusion protein transformed cells (MLL-AF9 transformed BMC): great selectivity; growth of human MLL leukemia cell lines ([4]; FIG. 13A): selectively inhibits growth
